Measurements reported in ChEMBL document CHEMBL1201862, “PubChem BioAssay data set” (2004).
One block for each molecule: values may come before it. Calls of active or inactive are those of the source.

Columns and labels:
Mu-type opioid receptor = Mu-type opioid receptor (Homo sapiens, UniProt P35372); assay: (§1) Counterscreen for agonists of heterodimerization of the mu 1 (OPRM1) and delta 1 (OPRD1) opioid receptors: Luminescence-based cell-based high throughput dose response assay to identify agonists of OPRM1 homodimerization.; format: functional
[1] = target: T1, Ubiquitin-conjugating enzyme E2 N (Homo sapiens, UniProt P61088); format: functional;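 note: Dose-response confirmation in a TR-FRET assay detecting UBC13-driven polyubiquitin chain formation, inhibition measured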
T1 sequence (P61088 whole entry): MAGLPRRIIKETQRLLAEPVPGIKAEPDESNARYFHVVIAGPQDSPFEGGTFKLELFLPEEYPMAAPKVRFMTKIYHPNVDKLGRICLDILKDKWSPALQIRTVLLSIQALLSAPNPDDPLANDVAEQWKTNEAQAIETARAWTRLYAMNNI

[2] = target: 5-hydroxytryptamine receptor 5A (Homo sapiens, UniProt P47898); assay: Counterscreen for agonists of OPRM1-OPRD1 heterodimerization: luminescence-based cell-based high throughput dose response assay to identify agonists of 5-hydroxytryptamine (serotonin) 5A receptor (HTR5A). [Related pubchem assays (depositor defined):AID504326, AID504355, AID504692, AID504904, AID504905]; format: functional
[3] = target: Delta-type opioid receptor (Homo sapiens, UniProt P41143); assay: as §1, with “of OPRD1” for “of OPRM1”, “homodimerization. [Related pubchem assays (depositor defined):AID504326, AID504355, AID504692, AID504904, AID504905]” for “homodimerization.”; format: functional
Cytochrome P450 2C9 = Cytochrome P450 2C9 (Homo sapiens, UniProt P11712)
Cytochrome P450 2C19 = Cytochrome P450 2C19 (Homo sapiens, UniProt P33261); assay: Cytochrome panel assay with activity outcomes. Panel member name: p450-cyp2c19 Compounds with AC50 equal or less than 10 uM are considered active; format: functional; conditions: read-out: AC50
SUMO-activating enzyme = SUMO-activating enzyme (Homo sapiens, UniProt Q9UBT2); assay: blockers of UBC9-mediated SUMO conjugation – biochemical, AlphaScreen, SUMOylation inhibitor project, confirmation (AID 2018); format: functional
Cytochrome P450 1A2 = target: T2, Cytochrome P450 1A2 (Homo sapiens, UniProt P05177);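 note: PubChem cytochrome P450 panel assay, CYP1A2 panel member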
T2 sequence (P05177 whole entry): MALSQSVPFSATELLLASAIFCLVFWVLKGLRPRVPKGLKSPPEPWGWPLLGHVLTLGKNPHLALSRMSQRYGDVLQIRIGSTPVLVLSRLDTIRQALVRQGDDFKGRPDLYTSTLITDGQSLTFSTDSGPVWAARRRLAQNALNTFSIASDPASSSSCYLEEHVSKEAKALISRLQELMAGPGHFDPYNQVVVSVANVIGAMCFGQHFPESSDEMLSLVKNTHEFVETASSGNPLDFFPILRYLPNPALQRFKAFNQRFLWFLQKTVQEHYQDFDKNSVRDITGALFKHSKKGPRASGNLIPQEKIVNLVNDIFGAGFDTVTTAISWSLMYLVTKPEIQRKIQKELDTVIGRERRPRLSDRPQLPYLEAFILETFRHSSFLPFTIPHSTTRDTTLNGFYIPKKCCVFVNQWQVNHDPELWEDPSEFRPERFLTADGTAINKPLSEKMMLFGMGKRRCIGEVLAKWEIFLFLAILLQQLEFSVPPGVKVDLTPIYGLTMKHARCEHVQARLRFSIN

[4] = target: T3, Dual specificity protein phosphatase 6 (Rattus norvegicus, UniProt Q64346); format: functional
T3 sequence (Q64346 whole entry): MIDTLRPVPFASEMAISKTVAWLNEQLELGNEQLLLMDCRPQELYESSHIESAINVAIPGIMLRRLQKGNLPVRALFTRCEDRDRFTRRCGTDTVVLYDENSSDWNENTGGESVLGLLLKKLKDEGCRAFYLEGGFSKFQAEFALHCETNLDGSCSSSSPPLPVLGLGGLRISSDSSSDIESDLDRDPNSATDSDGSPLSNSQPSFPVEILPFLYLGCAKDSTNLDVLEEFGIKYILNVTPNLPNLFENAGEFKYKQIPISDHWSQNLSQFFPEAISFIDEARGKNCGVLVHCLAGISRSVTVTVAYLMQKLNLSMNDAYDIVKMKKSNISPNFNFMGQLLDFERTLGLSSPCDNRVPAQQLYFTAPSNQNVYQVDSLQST

[5] = target: T4, Tyrosine-protein phosphatase non-receptor type 7 (Homo sapiens, UniProt P35236); format: functional
T4 sequence (P35236 whole entry): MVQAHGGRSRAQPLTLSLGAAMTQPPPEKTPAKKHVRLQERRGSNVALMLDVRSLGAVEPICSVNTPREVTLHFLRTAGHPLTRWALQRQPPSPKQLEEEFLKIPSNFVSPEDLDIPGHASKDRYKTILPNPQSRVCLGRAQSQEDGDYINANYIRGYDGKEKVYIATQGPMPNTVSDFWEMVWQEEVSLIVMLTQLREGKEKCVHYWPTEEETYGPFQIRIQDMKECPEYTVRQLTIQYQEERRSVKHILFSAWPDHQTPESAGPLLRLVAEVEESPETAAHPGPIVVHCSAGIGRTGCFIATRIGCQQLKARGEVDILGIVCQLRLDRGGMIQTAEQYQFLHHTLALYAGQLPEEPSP

[6] = target: T3, Dual specificity protein phosphatase 6
[7] = target: Glyceraldehyde-3-phosphate dehydrogenase (Homo sapiens, UniProt P04406)
[8] = target: T5, Short transient receptor potential channel 4 (Mus musculus, UniProt Q9QUQ5); assay: calcium entry via TRPC4 opening agents – cell-based, HEK293 TRPC4/mu-opioid, Fluo-4 calcium, dose response (AID 434937); format: functional
T5 sequence (Q9QUQ5 whole entry): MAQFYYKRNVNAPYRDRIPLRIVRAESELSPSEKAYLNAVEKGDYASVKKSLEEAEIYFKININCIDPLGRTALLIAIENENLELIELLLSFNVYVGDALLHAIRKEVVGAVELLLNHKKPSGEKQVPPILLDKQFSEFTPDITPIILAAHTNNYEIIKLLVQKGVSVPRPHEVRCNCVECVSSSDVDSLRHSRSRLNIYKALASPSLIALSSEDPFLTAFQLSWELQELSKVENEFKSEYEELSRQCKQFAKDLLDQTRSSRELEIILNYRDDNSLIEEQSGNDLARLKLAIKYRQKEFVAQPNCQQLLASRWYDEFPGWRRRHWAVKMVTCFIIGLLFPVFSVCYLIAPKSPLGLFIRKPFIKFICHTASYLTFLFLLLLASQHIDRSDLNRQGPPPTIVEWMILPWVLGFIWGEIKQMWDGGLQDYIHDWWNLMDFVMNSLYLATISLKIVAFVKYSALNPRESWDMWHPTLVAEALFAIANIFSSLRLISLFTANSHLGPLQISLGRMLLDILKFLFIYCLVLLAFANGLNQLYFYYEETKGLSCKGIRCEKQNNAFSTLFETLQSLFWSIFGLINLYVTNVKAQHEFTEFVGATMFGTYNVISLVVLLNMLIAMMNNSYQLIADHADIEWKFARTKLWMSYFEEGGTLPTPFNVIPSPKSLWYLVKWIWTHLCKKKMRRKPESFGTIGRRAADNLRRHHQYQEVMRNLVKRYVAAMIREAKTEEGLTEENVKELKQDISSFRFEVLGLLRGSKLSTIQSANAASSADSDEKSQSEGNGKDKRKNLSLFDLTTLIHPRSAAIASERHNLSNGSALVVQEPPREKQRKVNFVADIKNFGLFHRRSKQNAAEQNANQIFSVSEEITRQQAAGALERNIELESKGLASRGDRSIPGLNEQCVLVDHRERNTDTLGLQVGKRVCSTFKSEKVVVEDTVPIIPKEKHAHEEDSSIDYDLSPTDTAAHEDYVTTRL

Sequence of Glyceraldehyde-3-phosphate dehydrogenase (P04406 whole entry): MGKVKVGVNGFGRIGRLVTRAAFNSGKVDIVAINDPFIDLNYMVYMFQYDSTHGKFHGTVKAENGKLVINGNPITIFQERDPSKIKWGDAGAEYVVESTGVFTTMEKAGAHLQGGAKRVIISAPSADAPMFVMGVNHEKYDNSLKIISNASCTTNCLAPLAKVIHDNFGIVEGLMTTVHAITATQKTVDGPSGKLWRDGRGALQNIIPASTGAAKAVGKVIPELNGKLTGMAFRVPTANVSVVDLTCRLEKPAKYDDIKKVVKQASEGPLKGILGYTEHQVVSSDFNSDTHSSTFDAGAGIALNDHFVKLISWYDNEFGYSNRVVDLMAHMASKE
Sequence of Mu-type opioid receptor (P35372 whole entry): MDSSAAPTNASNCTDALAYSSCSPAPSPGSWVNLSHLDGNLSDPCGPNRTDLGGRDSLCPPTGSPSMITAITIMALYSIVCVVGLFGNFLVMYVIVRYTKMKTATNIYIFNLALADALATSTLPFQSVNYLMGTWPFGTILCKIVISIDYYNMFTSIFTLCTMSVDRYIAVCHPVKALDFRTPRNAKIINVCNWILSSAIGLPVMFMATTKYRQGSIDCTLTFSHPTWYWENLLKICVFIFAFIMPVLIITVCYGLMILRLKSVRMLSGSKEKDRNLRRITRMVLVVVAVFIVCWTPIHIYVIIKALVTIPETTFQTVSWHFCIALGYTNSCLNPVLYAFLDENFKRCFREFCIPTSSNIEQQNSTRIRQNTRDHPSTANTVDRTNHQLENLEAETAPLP
Sequence of Cytochrome P450 2C9 (P11712 whole entry): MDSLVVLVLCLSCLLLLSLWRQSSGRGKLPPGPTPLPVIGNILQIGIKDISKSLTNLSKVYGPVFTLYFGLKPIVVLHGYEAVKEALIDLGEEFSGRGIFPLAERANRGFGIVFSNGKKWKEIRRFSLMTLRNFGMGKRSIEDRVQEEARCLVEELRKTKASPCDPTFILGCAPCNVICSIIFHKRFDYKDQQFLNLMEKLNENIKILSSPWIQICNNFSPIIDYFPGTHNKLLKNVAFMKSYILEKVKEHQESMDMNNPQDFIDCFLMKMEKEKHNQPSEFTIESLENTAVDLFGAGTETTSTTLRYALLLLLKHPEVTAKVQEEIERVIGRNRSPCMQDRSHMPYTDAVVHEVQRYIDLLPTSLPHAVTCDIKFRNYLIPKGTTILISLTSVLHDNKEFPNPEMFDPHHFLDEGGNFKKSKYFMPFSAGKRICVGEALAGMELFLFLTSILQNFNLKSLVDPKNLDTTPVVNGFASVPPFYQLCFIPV
Sequence of Delta-type opioid receptor (P41143 whole entry): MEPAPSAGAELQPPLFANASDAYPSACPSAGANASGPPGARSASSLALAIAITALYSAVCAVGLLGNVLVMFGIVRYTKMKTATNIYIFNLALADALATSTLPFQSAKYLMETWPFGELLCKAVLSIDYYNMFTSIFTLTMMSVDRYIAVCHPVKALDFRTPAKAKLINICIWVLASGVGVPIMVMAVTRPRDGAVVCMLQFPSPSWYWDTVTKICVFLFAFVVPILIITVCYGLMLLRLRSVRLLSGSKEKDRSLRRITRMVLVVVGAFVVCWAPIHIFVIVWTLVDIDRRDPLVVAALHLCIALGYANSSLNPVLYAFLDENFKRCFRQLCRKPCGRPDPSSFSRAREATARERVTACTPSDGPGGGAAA
Sequence of 5-hydroxytryptamine receptor 5A (P47898 whole entry): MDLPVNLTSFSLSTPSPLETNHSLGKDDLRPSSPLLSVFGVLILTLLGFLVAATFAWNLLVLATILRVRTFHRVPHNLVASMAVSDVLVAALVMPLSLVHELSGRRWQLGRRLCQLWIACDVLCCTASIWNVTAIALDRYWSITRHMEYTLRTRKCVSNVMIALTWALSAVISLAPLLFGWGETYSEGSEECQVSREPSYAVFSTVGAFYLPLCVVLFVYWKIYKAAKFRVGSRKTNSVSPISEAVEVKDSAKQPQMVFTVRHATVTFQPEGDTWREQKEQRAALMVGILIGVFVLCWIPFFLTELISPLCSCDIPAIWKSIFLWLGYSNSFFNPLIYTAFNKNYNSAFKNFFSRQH
Sequence of Cytochrome P450 2C19 (P33261 whole entry): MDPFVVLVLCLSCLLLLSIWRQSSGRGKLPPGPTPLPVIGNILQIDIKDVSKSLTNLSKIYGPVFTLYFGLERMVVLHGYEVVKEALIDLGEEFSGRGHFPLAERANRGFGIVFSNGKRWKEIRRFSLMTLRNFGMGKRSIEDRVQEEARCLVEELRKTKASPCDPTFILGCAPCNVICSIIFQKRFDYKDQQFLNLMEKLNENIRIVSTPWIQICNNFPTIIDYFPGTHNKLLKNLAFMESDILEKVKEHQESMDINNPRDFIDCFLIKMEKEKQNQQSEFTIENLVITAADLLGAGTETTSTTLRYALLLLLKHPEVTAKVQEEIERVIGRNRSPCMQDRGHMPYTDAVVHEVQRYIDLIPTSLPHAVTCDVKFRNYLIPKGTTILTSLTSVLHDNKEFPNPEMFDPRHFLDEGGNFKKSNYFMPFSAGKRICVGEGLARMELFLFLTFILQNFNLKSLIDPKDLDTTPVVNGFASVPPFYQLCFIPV
Sequence of SUMO-activating enzyme (Q9UBE0 whole entry): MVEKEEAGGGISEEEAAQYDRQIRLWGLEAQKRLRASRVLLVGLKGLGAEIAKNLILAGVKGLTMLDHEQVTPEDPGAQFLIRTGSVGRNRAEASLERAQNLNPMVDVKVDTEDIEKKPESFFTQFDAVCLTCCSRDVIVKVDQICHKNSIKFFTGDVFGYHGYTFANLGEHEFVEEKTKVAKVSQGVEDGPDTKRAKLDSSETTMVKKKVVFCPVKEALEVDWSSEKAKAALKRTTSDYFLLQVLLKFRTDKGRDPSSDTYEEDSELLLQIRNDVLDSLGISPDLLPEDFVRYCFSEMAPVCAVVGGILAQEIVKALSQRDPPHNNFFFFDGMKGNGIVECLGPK
Sequence of SUMO-activating enzyme (Q9UBT2 whole entry): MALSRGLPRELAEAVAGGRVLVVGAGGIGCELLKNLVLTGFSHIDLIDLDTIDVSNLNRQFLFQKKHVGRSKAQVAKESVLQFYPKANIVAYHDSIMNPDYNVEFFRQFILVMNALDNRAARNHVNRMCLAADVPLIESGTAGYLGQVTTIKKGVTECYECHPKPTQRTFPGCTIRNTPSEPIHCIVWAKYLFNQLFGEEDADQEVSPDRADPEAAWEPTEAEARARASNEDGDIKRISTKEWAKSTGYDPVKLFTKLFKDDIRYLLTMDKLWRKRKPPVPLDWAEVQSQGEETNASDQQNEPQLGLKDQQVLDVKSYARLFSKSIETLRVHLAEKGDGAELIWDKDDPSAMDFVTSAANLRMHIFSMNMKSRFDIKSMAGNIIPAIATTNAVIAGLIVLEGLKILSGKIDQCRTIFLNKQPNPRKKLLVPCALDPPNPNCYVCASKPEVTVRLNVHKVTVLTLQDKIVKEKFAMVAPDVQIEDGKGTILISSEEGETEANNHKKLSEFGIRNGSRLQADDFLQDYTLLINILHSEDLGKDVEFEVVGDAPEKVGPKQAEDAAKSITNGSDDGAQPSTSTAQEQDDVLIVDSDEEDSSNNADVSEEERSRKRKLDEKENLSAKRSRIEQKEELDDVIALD

Structure (SMILES): CC[C@@H](C)[C@@H]1CN([C@@H](CN2CCC[C@H]2CN2C(N)=NC[C@H]2C(C)C)C(C)C)C(=N)N1CCc1ccc(Cl)c(Cl)c1
EC50 (Mu-type opioid receptor): 10.9 µM (inactive) | IC50 [1]: > 20 µM (inactive) | EC50 [2]: > 92.5 µM (inactive) | EC50 [3]: > 92.5 µM (inactive)

Structure (SMILES): O=C(NNC(=O)c1sc2ccccc2c1Cl)Nc1ccc(Cl)cc1
AC50 (Cytochrome P450 2C9): inconclusive | AC50 (Cytochrome P450 2C19): 3.55 µM (inconclusive) | IC50 (SUMO-activating enzyme): 25.8 µM (active)

Structure (SMILES): C[C@@]12CC[C@@H]3c4ccc(O)cc4CC[C@H]3[C@H]1CC[C@H]2O
AC50 (Cytochrome P450 1A2): 5.01 µM (inconclusive) | AC50 (Cytochrome P450 2C9): inconclusive

Structure (SMILES): Clc1cccc(Cl)c1COc1nnc(-c2cccs2)c(-c2cccs2)n1
IC50 [4]: > 100 µM (inactive) | IC50 [5]: > 100 µM (not active) | IC50 [6]: > 100 µM (inactive) | IC50 [7]: > 100 µM (not active)

Results, then the molecule that gave them:

IC50 [4]: > 100 µM (inactive) | IC50 [5]: > 100 µM (not active) | IC50 [6]: > 100 µM (inactive) | IC50 [7]: > 100 µM (not active)
Structure (SMILES): COCCCNc1nc(=O)n(-c2ccc(F)cc2)c(=O)[nH]1

EC50 (Mu-type opioid receptor): > 92.4 µM (inactive) | EC50 [8]: 0.944 µM (active) | EC50 [2]: > 92.4 µM (inactive) | EC50 [3]: > 92.4 µM (inactive)
Structure (SMILES): CN(C)c1ccc(C(CNC(=O)Cc2cccc3ccccc23)N(C)C)cc1 (stereo not given)

IC50 [4]: > 100 µM (inactive) | IC50 [5]: > 100 µM (not active) | IC50 [6]: > 100 µM (inactive) | IC50 [7]: > 100 µM (not active)
Structure (SMILES): Cn1c(=O)n(CC(N)=O)c(=O)n(-c2ccccc2)c1=O
